Values of other authors, collected in patent US20250152607A1, “COMPOSITIONS FOR VITAMIN D PRODUCTION” (DR WELLER LIMITED, priority 2022, published 2025).

What was measured:
[1] = powder

CC(C)[C@@H](C)/C=C/[C@@H](C)[C@H]1CC[C@H]2C3=CC=C4C[C@@H](O)CC[C@]4(C)[C@H]3CC[C@]12C [Ergosterol]
skin irritancy [1]: skin irritant

CC1=C(/C=C\C2=CCC[C@]3(C)[C@@H]([C@H](C)CCCC(C)C)CC[C@@H]23)C[C@@H](O)CC1 [pre-vitamin D3]
increase in rate of reaction for vitamin D3 formation from pre-vitamin D3 (by interaction with membrane phospholipids): more than 10 fold

pre-vitamin D
time for isomerization of pre-vitamin D to vitamin D to reach equilibrium (in hexane at 37° C.): up to 10 days
